SMILES strings stand for the structures.

This assay has as its target T1, Bxe_B3018 (MgxR).
T1 construct: GST-tagged (N-terminal, pGEX-KG / pGEX-T2), tag kept; expressed in Arctic Express cells; GSTrap and Superdex 200 purified
Briefly: fluorescence anisotropy, collapse of complex with fluorescein-labelled DNA operator. More on the design: species or system Paraburkholderia xenovorans. The settings on record: apparent, from loss of DNA operator binding; 250 nM GST-Bxe_B3018, 1 nM DOS; pH 7.5, 30 °C, 1 mM MgCl2, 1 mM DTT. (In general: In fluorescence polarisation assays a small probe gives low polarisation when free and higher when bound to something large.)
As to `CC(=O)CN` [Aa, aminoacetone], the Kd is 2.1 ± 0.4 mM.

With `CC(=O)C=O` [Mgx, methylglyoxal], the Kd turned out to be 2.1 ± 0.2 mM. Consider `CC(=O)CN(C)C` [N,N-dimethylaminoacetone], for which the Kd was found to be 2.6 ± 0.2 mM.

(Values after paper PMC4349456, “Automated genomic context analysis and experimental validation platform for discovery of prokaryote transcriptional regulator functions” (BMC Genomics, 2014).)
